Reference: ChEMBL document CHEMBL4834430, “Design and Structure-Activity Relationships of Isothiocyanates as Potent and Selective N-Acylethanolamine-Hydrolyzing Acid Amidase Inhibitors” (J Med Chem, 2021)
Calls of active or inactive are those of the source. No cut-off for these calls is given here.

Legend:
[1] = AUC in CD-1 mouse plasma at 2 mg/kg, iv measured up to 8 hrs; format: ADME, organism-based; design: route intravenous, dose 2 mg/kg, time <=8
[2] = MRT in CD-1 mouse plasma at 2 mg/kg, iv measured up to 8 hrs; format: ADME, organism-based
[3] = Mutagenecity in Salmonella typhimurium TA98 in absence of S9 fraction at 5 to 100 uM by Ames test; format: toxicity; conditions: salmonella enterica subsp. enterica serovar typhimurium, s9, 100 µM; dose 5-100 µM
[4] = target: Sodium-dependent serotonin transporter (Homo sapiens) (UniProt P31645); assay: Inhibition of SERT (unknown origin) at 10 uM
[5] = target: Cannabinoid receptor 2 (Homo sapiens) (UniProt P34972); assay: Displacement of [3H]-CP55940 from human CB2 receptor expressed in HEK293 cell membrane at 10 uM; format: cell membranes
[6] = Half life in CD-1 mouse plasma at 8 mg/kg, po measured up to 8 hrs; format: ADME, organism-based
[7] = AUC in CD-1 mouse brain at 8 mg/kg, po measured up to 6 hrs; format: ADME, organism-based; design: route oral, dose 8 mg/kg, time <=6
[8] = Mutagenecity in Salmonella typhimurium TA1537 in presence of S9 fraction at 5 to 100 uM by Ames test; format: toxicity, subcellular; conditions: salmonella enterica subsp. enterica serovar typhimurium, s9, 100 µM; dose 5-100 µM
[9] = target: Cannabinoid receptor 1 (Rattus norvegicus) (UniProt P20272); assay: Displacement of [3H]-CP55940 from rat forebrain CB1 receptor at 10 uM
[10] = Half life in rat liver microsomes at 1 uM in presence of NADPH by LC-MS/MS analysis; format: ADME, Microsome
[11] = Drug concentration in plasma of CD-1 mouse at 2 mg/kg, iv administered as single cassette dose measured after 15 mins; format: ADME, organism-based
[12] = Volume of distribution in CD-1 mouse plasma at 8 mg/kg, po measured up to 8 hrs; format: ADME, organism-based; conditions: in vivo
[13] = Ratio of drug concentration in brain to plasma in CD-1 mouse at 2 mg/kg, iv; format: ADME, organism-based; conditions: read-out: BPR
[14] = target: T1, N-acylethanolamine-hydrolyzing acid amidase (Homo sapiens, UniProt Q02083); assay: Inhibition of human NAAA using N-(4-methyl coumarin)-palmitamide as fluorogenic substrate preincubated for 90 mins followed by substrate addition by fluorescence assay
T1 sequence (Q02083 whole entry): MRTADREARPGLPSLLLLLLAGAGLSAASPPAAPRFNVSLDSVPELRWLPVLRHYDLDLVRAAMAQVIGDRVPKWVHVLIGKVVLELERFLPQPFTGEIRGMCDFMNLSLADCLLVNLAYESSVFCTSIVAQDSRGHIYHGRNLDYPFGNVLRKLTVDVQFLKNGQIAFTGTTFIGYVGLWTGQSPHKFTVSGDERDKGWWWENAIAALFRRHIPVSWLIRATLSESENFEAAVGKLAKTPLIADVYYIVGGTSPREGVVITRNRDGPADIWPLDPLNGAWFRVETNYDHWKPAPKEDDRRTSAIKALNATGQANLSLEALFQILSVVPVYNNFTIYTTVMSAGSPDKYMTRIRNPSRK

[15] = AUC in CD-1 mouse brain at 2 mg/kg, iv measured up to 6 hrs; format: ADME, organism-based; design: route intravenous, dose 2 mg/kg, time <=6
[16] = target: Sodium-dependent noradrenaline transporter (Homo sapiens) (UniProt P23975); assay: Inhibition of NET (unknown origin) at 10 uM
[17] = MRT in CD-1 mouse plasma at 8 mg/kg, po measured up to 8 hrs; format: ADME, organism-based

Sequence of Cannabinoid receptor 2 (Homo sapiens) (P34972 whole entry): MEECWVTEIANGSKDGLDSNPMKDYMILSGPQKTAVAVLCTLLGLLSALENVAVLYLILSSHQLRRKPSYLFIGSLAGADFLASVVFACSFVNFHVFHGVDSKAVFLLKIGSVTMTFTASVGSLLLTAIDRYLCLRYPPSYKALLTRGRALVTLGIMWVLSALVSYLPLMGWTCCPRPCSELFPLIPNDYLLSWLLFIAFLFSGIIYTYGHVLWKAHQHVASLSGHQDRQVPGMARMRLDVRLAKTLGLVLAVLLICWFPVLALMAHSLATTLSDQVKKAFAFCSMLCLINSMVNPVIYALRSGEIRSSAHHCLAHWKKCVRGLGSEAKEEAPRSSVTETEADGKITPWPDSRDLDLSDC
Sequence of Sodium-dependent serotonin transporter (Homo sapiens) (P31645 whole entry, looked up): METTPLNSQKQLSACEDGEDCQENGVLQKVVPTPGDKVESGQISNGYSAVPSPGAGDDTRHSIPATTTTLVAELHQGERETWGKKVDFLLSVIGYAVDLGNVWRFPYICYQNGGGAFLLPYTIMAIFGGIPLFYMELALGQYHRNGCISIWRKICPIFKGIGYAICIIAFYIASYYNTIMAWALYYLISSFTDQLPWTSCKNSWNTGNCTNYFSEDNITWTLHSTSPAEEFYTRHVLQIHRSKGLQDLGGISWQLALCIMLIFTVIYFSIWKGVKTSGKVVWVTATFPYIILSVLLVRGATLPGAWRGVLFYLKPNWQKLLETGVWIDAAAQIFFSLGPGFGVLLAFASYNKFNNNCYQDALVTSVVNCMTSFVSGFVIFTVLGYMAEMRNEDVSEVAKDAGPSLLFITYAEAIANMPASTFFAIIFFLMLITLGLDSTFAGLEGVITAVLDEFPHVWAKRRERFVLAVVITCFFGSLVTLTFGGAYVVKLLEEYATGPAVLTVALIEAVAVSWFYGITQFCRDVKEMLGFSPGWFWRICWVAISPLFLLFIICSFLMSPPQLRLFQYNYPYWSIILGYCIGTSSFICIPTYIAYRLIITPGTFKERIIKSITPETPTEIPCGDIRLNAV
Sequence of Cannabinoid receptor 1 (Rattus norvegicus) (P20272 whole entry): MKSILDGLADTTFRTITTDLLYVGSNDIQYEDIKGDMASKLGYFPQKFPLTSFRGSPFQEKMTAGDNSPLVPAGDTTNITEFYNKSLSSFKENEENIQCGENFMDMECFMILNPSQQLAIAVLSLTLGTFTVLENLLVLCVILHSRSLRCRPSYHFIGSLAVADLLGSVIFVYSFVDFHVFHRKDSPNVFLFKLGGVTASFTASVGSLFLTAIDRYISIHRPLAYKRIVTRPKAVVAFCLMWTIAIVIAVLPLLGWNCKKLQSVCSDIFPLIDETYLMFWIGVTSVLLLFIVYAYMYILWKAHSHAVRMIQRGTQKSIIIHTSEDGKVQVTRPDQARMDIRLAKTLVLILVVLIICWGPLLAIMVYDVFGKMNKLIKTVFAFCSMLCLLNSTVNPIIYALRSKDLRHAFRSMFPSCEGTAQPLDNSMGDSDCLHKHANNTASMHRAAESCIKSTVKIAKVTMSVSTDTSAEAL
Sequence of Sodium-dependent noradrenaline transporter (Homo sapiens) (P23975 whole entry): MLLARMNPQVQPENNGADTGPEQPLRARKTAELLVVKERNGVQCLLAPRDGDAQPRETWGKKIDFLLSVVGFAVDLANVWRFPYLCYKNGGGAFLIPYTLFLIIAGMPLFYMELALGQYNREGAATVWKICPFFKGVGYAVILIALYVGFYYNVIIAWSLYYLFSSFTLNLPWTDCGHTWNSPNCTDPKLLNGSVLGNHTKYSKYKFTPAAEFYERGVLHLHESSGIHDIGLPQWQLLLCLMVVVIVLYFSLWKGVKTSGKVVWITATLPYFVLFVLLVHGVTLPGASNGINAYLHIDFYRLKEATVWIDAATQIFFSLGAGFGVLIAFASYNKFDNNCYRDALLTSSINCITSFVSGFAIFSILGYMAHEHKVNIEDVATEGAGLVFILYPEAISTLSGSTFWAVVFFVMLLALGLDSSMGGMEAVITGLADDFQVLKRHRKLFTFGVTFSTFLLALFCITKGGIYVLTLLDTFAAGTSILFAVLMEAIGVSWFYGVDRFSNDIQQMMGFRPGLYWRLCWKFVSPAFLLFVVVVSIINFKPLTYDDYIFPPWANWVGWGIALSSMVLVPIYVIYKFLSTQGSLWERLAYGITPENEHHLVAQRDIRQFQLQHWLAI

## COc1ccc(-c2ccc(CO[C@H]3C[C@@H](N=C=S)C3)nc2)cc1F
[1]
  AUC at 8 h: 78.5 ng·h/mL
[2]
  MRT: 20.3 min
[3]
  Activity: Non-Toxic
[4]
  inhibition: inactive
[5]
  inhibition: inactive
[6]
  half-life: 31.5 min
[7]
  AUC at 6 h: 10.3 ng·h/mL
[8]
  Activity: Non-Toxic
[9]
  inhibition: inactive
[10]
  half-life at 1 µM: 19.2 min
[11]
  concentration at 0.25 h: 189 ng/mL
[12]
  Vd: 126 L/kg
[13]
  Kp: 3.8
[14]
  IC50: 20 nM
[15]
  AUC at 6 h: 298 ng·h/mL
[16]
  inhibition: inactive
[17]
  MRT: 64.2 min
